Test results: US20250090541A1, “Methods for Treating Neurodegenerative Disorders” (Praetego Inc, priority 2022, published 2025)

Legend:
[1] = Oral pharmacokinetics and tissue distribution of PTG-630 (blood brain barrier penetration); assay type: in vivo, Sprague-Dawley rats; parameters: AUC(0-t) / AUC(0-inf): concentration or dose not given beside the values; settings: for concentration at 0.5 h: 0.50 h
Description: This was a study in male Sprague-Dawley rats. The primary objective was to assess the IV and PO pharmacokinetics of PTG-630. The secondary objectives were to assess tissue distribution after oral administration of PTG-630 (free base form) and the renal excretion, hepatic extraction efficiency and bioavailability of PTG-630.
Twelve non-cannulated animals were arbitrarily assigned to groups upon arrival and housed together throughout the experiment. The animals were acclimated to their designated housing for at least 24 hours before the first day of dosing. PTG-630 was formulated in 0.5% methyl cellulose and 0.1% Tween 20 in water for injection and administered to animals by mouth (PO) with blood and tissue samples collected at predetermined time points. Right thigh muscle, liver, brain, right sciatic nerve, and right kidney were collected at the terminal time points. These samples were collected and placed into individually labeled tubes and frozen at −20° C. Tissues samples were analyzed for concentration of PTG-630.

human tau mice [2] = experiment: Object recognition test, human tau mice; assay type: in vivo
Description: The human tau mouse is a model of sporadic dementia that expresses human non-mutant tau (6 isoforms) in the absence of endogenous mouse tau. The model develops age-associated pathology, with hyperphosphorylated tau detected in cell bodies and dendrites by 3 months of age (Andorfer et al., 2003; J Neurochem 86, 582-590, doi:10.1046/j.1471-4159.2003.01879.x). These mice display abnormal spatial learning by 6 months of age and impaired learning in the Morris water maze with memory loss by 12 months of age, as well as memory deficits in the Barnes maze by 6 months of age (Marquez et al, 2021).
(§1) Female and male human tau mice (Jax #005491) were treated daily for 25 weeks with PTG-630 trihydrochloride at 1 and 5 mg/kg in drinking water starting at 10 weeks of age (before cognitive deficits appear).
Learning and memory were assessed using the Barnes maze test and the object recognition test at 6-8, 12-13, 18-19 and 24-25 weeks. Corneal nerves were imaged by corneal confocal microscopy (CCM) at week 6, 9, 12, 18 and 25. Data represent male and female results combined, mean±sem.

human tau mice [3] = experiment: Tactile allodynia (manual von Frey filaments), human tau mice; assay type: in vivo; settings: 5 mg/kg, after 14 weeks of treatment
Method: as §1
(§2) Tactile and thermal responses, measures of associated damage to the peripheral nervous system (PNS), were assessed at 8, 14, 18 and 24 weeks. hTau mice developed significant tactile allodynia measured with manual von Frey filaments at the 14 weeks time point (FIG. 4).

human tau mice [4] = experiment: Thermal response to heat (hypoalgesia), human tau mice; assay type: in vivo
Method: as §1, §2
Human tau mice develop significant hypoalgesia (FIG. 5).

[5] = system: carboxymethyl Lysine (CML); experiment: Carboxymethyl lysine (CML) by LC-MS/MS in terminal plasma and brain cortex, htau mice; assay type: in vivo
Method: as §1
Terminal plasma and brain cortex were also analyzed for carboxymethyl Lysine (CML), a prominent advanced glycation end-product (AGE), by an LC-MS/MS quantitative chemical analysis method. PTG-630 and PTG-670 were developed as potent AGE inhibitors and tested for amelioration of PNS and CNS damage due to the extensive work that implicated AGE formation as a causative factor in the development of neurodegenerative pathologies.

[6] = male, Sprague-Dawley, rat, brain, po
[7] = male, Sprague-Dawley, rat, kidney, po
[8] = male, Sprague-Dawley, rat, liver, po
[9] = male, Sprague-Dawley, rat, muscle, po
[10] = male, Sprague-Dawley, rat, plasma, po
[11] = male, Sprague-Dawley, rat, sciatic nerve, po
[12] = male, Sprague-Dawley, rat, Brain, PO, mean
[13] = male, Sprague-Dawley, rat, Kidney, PO, mean
[14] = male, Sprague-Dawley, rat, Liver, PO, mean
[15] = male, Sprague-Dawley, rat, Muscle, PO, mean
[16] = male, Sprague-Dawley, rat, Plasma, PO, mean
[17] = male, Sprague-Dawley, rat, Sciatic Nerve, PO, mean

## Cc1ncc(CN2CCOCC2)c(-c2ncc[nH]2)c1O [PTG-630, 4-(1H-imidazol-2-yl)-2-methyl-5-(morpholinomethyl)pyridin-3-ol]
[1]; Brain, 24 h, PO, mean
  Concentration: BLQ
[1]; Brain, PO
  % Extrap: 23.7%
[1]; Kidney, 24 h, PO, mean
  Concentration: BLQ
[1]; Kidney, PO
  % Extrap: 14.0%
[1]; Liver, 24 h, PO, mean
  Concentration: BLQ
[1]; Liver, PO
  % Extrap: 5.72%
[1]; Muscle, 24 h, PO, mean
  Concentration: BLQ
[1]; Muscle, PO
  % Extrap: 30.7%
[1]; Plasma, PO
  % Extrap: 1.13%
[1]; Sciatic Nerve, 24 h, PO, mean
  Concentration: BLQ
[1]; any tissue except plasma, 24 hours post dose
  detectability in tissues 24 hours post dose: not detectable
[1]; brain vs plasma
  Half-life in brain relative to plasma: 1.3 times
[1]; liver, kidney, brain, sciatic nerve, muscle
  quantifiability in tested tissues: quantifiable in all tested tissues
[1]; [6]
  AUC(0-inf): 6720 ng·h/mL
  AUC(0-t): 5130 ng·h/mL
  Cmax: 1990 ng/mL
  Tmax: 1 h
  half-life: 4.53 h
[1]; [7]
  AUC(0-inf): 11400 ng·h/mL
  AUC(0-t): 9770 ng·h/mL
  Cmax: 3880 ng/mL
  Tmax: 1 h
[1]; [8]
  AUC(0-inf): 22000 ng·h/mL
  AUC(0-t): 20700 ng·h/mL
  Cmax: 6350 ng/mL
  Tmax: 1 h
[1]; [9]
  AUC(0-inf): 3820 ng·h/mL
  AUC(0-t): 2650 ng·h/mL
  Cmax: 1030 ng/mL
  Tmax: 1 h
[1]; [10]
  AUC(0-inf): 8700 ng·h/mL
  AUC(0-t): 8600 ng·h/mL
  Cmax: 1160 ng/mL
  Tmax: 1 h
[1]; [11]
  AUC(0-t): 6550 ng·h/mL
  Cmax: 1830 ng/mL
  Tmax: 1 h
[1]; male, Sprague-Dawley, rat, selected tissues vs plasma, po, read-out: exposure in selected tissues relative to exposure in plasma
  Kp: 3 to 5
[1]; [12]
  concentration at 0.5 h: 1430 ng/mL
  concentration at 1 h: 1990 ng/mL
  concentration at 2 h: 450 ng/mL
  concentration at 4 h: 1000 ng/mL
  concentration at 6 h: 244 ng/mL
[1]; [13]
  concentration at 0.5 h: 2230 ng/mL
  concentration at 1 h: 3880 ng/mL
  concentration at 2 h: 1510 ng/mL
  concentration at 4 h: 1520 ng/mL
  concentration at 6 h: 466 ng/mL
[1]; [14]
  concentration at 0.5 h: 5720 ng/mL
  concentration at 1 h: 6350 ng/mL
  concentration at 2 h: 5080 ng/mL
  concentration at 4 h: 2420 ng/mL
  concentration at 6 h: 647 ng/mL
[1]; [15]
  concentration at 0.5 h: 775 ng/mL
  concentration at 1 h: 1030 ng/mL
  concentration at 2 h: 290 ng/mL
  concentration at 4 h: 401 ng/mL
  concentration at 6 h: 245 ng/mL
[1]; [16]
  concentration at 0.5 h: 930 ng/mL
  concentration at 1 h: 1160 ng/mL
  concentration at 2 h: 274 ng/mL
  concentration at 4 h: 794 ng/mL
  concentration at 6 h: 510 ng/mL
[1]; male, Sprague-Dawley, rat, Plasma, 24 h, PO, mean
  concentration at 24 h: 18.4 ng/mL
[1]; [17]
  concentration at 0.5 h: 1660 ng/mL
  concentration at 1 h: 1830 ng/mL
  concentration at 2 h: 510 ng/mL
  concentration at 4 h: 989 ng/mL
  concentration at 6 h: 690 ng/mL
[1]; male, Sprague-Dawley, rat, tissues, comparable to plasma, PO
  Tmax: 1 h
Human tau mice [2]; 1 mg/kg in drinking water
  short term episodic memory deficits in Object recognition test: partially ameliorated
Human tau mice [2]; 5 mg/kg in drinking water for 17 weeks
  short term episodic memory deficits in Object recognition test: significantly alleviated
Human tau mice [2]; FIG. 2 legend, dose not stated
  short-term episodic memory (recognition index): partially prevented
Human tau mice [3]
  tactile allodynia: significantly ameliorated
Human tau mice [4]; 1 mg/kg, remained for the rest of the study
  thermal hypoalgesia: significant by 14 weeks of treatment
Human tau mice [4]; 5 mg/kg, by 8 weeks of treatment and for the duration of the study
  thermal hypoalgesia: significantly ameliorated
Human tau mice [4]; FIG. 5 legend, after 24 weeks of treatment
  thermal responses to heat: amelioration of hypoalgesia
[5]; female htau mice, 5 mg/kg
  CML levels in cortex: significantly (p<0.05) reduced
[5]; male
  CML levels in cortex: No significant difference
[5]; male and female
  CML levels in plasma: No significant difference
